Results published in article PMC9045243, “Gluconate Kinase Is Required for Gluconate Assimilation and Sporulation in Cryptococcus neoformans” (Microbiology Spectrum, 2022).

Legend:
[1] = biological target: T1, CnGnk1 (Gnk1, Gnk1p; formerly IRK3) (Cryptococcus neoformans, UniProt J9VGW6); assay: 6PGDH-coupled NADPH absorbance at […] nm; format: biochemical; settings: 1 mM MgCl2, 500 uM NADP+, pH 7.5, 37 C
T1 construct: gene CNAG_03048
T1 sequence (J9VGW6 1-230): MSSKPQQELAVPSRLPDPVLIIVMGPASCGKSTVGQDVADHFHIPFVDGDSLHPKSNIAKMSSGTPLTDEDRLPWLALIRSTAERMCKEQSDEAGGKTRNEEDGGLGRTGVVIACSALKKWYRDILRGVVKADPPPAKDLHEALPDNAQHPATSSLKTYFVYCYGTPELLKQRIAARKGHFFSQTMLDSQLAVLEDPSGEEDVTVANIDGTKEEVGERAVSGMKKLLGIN

[2] = biological target: T1, CnGnk1 (Gnk1, Gnk1p; formerly IRK3); assay: competition against gluconate, 6PGDH-coupled NADPH absorbance at […] nm; format: biochemical; settings: 0.5 mM gluconate, competing sugar 10 mM

Row | SMILES | % reduction in activity at 10 mM [2] | further results
1 | Nc1ncnc2c1ncn2[C@@H]1O[C@H](COP(=O)(O)OP(=O)(O)OP(=O)(O)O)[C@@H](O)[C@H]1O [ATP] | – | KM (apparent) ([1]; 10 mM gluconate): 2.6, 95% CI (1.9, 3.7) mM
2 | OC[C@H]1OC(O)[C@H](O)[C@@H](O)[C@H]1O (some centres unmarked) [galactose] | ~ 20% | –
3 | O=C(O)[C@H](O)[C@@H](O)[C@H](O)[C@H](O)CO [gluconate] | – | KM (apparent) ([1]; 10 mM ATP): 3.7, 95% CI (2.7, 5.2) mM
4 | OC[C@H]1OC(O)[C@H](O)[C@@H](O)[C@@H]1O (some centres unmarked) [glucose] | ~ 40% | –
5 | OC[C@@H](O)[C@@H](O)[C@H](O)[C@H](O)CO [mannitol] | ~ 20% | –
